In patent publication US11879137B2, “Treatment of type 1 diabetes and autoimmune diseases or disorders” (THE CHILDREN'S MEDICAL CENTER CORPORATION, priority 2017, dated 2024):

System: CD34+ cells
Test: Transwell migration assay toward SDF-1
Type: cell-based, human
Conditions: SDF-1, 2 hours
Experimental: Migration assay. Transwell migration assays were performed on PGE2-modulated HSPCs compared to unmodulated HSPCs in the presence of 0 to 50 ng/ml SDF-1 (R&D Systems, Minneapolis, MN). In brief, cells were suspended in 0.5% BSA Phenol Red-Free RPMI and plated in the upper chambers of an HTS-Transwell-96-well permeable support plate (Corning, Acton, MA) and incubated at 37° C. in 5% CO2 for 2 hours. After 2 hours incubation, migrated cells were counted using BD TruCount (BD Biosciences) by flow cytometry.
Prostaglandin library screening. PGE2 has been described as a small molecule known to enhance the homing and engraftment of HSPCs. It was therefore sought to screen all known types of prostaglandins using the Prostaglandin Screening Library II, which contains 64 small molecules. Each small molecule contained in the library was first screened for its capacity to upregulate PD-L1 in human CD34+ cells isolated from T1D patients (FIG. 17A-17B). CD34+ cells isolated from T1D patients were cultured in StemSpan SFEMII and pulsed with each PG (prostaglandin) small molecule contained in the aforementioned library at a concentration of 10 μM at 24 and 48h. Using FACS analysis, the MFI (mean fluorescence intensity) of PD-L1 expression was calculated following treatment with each small molecule used to modulate CD34+ cells as compared to untreated/unmodulated CD34+ cells (FIG. 17B). […]

CCCCC[C@H](O)/C=C/[C@H]1[C@H](O)CC(=O)[C@@H]1C/C=C\CCCC(=O)O [PGE2, prostaglandin E2]
homing potential in migration assay: substantial increase
